Legend:
[1] = molecular target: T1, human sodium glucose cotransporter 2 (Homo sapiens, UniProt P31639); assay: SGLT-2 assay: sodium-dependent 14C-AMG uptake in CHO-hSGLT2 or HEK-hSGLT2 cells; format: cell-based; conditions: n = 1-4, hSGLT2-transfected CHO-K1 or HEK293 cells, read-out: SGLT2 IC50 nM (n = 1-4)
T1 construct: expressed in transfected cells; host or cells: CHO-K1 (ATCC CCL-61) or HEK293 (ATCC CRL-1573), stably transfected with pZeoSV
T1 sequence (P31639 1-672): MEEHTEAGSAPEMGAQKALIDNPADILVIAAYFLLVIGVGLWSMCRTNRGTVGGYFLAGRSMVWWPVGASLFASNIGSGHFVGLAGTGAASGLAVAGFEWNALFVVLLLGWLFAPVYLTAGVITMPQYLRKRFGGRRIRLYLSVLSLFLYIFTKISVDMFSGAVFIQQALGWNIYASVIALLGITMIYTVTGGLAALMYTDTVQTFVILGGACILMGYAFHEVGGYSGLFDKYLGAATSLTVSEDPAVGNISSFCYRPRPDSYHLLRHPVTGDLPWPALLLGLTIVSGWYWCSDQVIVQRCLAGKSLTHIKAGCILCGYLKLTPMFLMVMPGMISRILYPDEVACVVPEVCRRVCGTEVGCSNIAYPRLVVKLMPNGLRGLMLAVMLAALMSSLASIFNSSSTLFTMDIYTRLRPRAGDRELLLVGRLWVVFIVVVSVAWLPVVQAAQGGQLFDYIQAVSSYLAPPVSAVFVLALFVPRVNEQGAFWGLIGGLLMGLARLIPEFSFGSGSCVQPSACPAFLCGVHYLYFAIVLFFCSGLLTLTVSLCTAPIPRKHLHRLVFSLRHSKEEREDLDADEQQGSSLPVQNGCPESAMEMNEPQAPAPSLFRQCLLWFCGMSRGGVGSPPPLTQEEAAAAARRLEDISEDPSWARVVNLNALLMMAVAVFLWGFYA
Procedure: These cell lines transport 14 C-labeled alpha-methyl-glucopyranoside (14 C-AMG, Amersham) into the interior of the cell in sodium-dependent manner.
(§1) The SGLT-2 assay is carried out as follows: CHO-hSGLT2 cells are cultivated in Ham's F12 Medium (BioWhittaker) with 10% fetal calf serum and 250 μg/mL zeocin (Invitrogen), and HEK293-hSGLT2 cells are cultivated in DMEM medium with 10% fetal calf serum and 250 μg/mL zeocin (Invitrogen). The cells are detached from the culture flasks by washing twice with PBS and subsequently treating with trypsin/EDTA. After the addition of cell culture medium the cells are centrifuged, resuspended in culture medium and counted in a Casy cell counter. Then 40,000 cells per well are seeded into a white, 96-well plate coated with poly-D-lysine and incubated overnight at 37° C., 5% CO2. The cells are washed twice with 250 μl of assay buffer (Hanks Balanced Salt Solution, 137 mM NaCl, 5.4 mM KCl, 2.8 mM CaCl2, 1.2 mM MgSO4 and 10 mM HEPES (pH 7.4), 50 μg/mL of gentamycin). 250 μl of assay buffer and 5 μl of test compound are then added to each well and the plate is incubated for a further 15 minutes in the incubator. 5 μl of 10% DMSO are used as the negative control. The reaction is started by adding 5 μl of 14 C-AMG (0.05 μCi) to each well. After 2 hours' incubation at 37° C., 5% CO2, the cells are washed again with 250 μl of PBS ([…]) and then lysed by the addition of 25 μl of 0.1 N NaOH (5 min. at 37° C.). 200 μl of MicroScint20 (Packard) are added to each well and incubation is continued for a further 20 min at 37° C. After this incubation the radioactivity of the 14 C-AMG absorbed is measured in a Topcount (Packard) using a 14 C scintillation program.

[2] = molecular target: T2, human SGLT1 (Homo sapiens, UniProt P13866); assay: Analogous SGLT1 selectivity test: hSGLT1 expressed in CHO-K1 or HEK293 cells; format: cell-based; conditions: n = 1-4; 14C-AMG uptake, hSGLT1-transfected CHO-K1 or HEK293 cells
T2 construct: expressed in transfected cells; host or cells: CHO-K1 or HEK293
T2 sequence (P13866 1-664): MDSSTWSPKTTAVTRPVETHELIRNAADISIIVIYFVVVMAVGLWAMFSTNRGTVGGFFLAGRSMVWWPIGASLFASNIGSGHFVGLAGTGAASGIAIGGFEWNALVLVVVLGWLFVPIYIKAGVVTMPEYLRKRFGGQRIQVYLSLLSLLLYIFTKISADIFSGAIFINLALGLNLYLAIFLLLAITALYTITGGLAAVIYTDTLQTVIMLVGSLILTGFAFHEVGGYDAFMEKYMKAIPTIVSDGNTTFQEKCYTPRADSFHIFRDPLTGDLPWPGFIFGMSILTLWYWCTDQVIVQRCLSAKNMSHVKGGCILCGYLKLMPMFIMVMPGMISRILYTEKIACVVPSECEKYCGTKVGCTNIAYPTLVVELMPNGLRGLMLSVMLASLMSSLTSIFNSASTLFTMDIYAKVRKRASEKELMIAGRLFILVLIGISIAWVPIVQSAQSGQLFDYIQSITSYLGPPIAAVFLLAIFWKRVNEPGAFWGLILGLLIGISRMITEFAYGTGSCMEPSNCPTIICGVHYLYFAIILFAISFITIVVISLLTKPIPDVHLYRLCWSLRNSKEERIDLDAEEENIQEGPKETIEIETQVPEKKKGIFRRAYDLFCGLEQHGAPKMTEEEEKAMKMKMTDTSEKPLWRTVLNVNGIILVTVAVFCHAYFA
Procedure: as §1
To determine the selectivity with respect to human SGLT1 an analogous test is set up in which the cDNA for hSGLTI (Genbank Ace. No. NM000343) instead of hSGLT2 cDNA is expressed in CHO-K1 or HEK293 cells.

Structure (SMILES)	IC50 [1]	IC50 [2]
CCOc1ccc(Cc2cc([C@@H]3OC4(CC4)[C@@H](O)[C@H](O)[C@H]3O)ccc2Cl)cc1 [Example 2, (5S,6R,7R,8S)-5-[4-Chloro-3-(4-ethoxy-benzyl)-phenyl]-4-oxa-spiro[2.5]octane-6,7,8-triol]	1 nM	300 nM
CCOc1ccc(Cc2cc([C@@H]3OC4(CC4)[C@@H](O)[C@H](O)[C@H]3O)ccc2C)cc1 [Example 3, (5S,6R,7R,8S)-5-[3-(4-Ethoxy-benzyl)-4-methyl-phenyl]-4-oxa-spiro[2.5]octane-6,7,8-triol]	0.9 nM	153 nM
Oc1ccc(Cc2cc([C@@H]3OC4(CC4)[C@@H](O)[C@H](O)[C@H]3O)ccc2Cl)cc1 [Example 6, (5S,6R,7R,8S)-5-[4-Chloro-3-(4-hydroxy-benzyl)-phenyl]-4-oxa-spiro[2.5]octane-6,7,8-triol]	2.6 nM	460 nM
CCOc1ccc(Cc2cc([C@@H]3OC(CO)(CO)[C@@H](O)[C@H](O)[C@H]3O)ccc2Cl)cc1 [Example 10, (3S,4R,5R,6S)-6-[4-Chloro-3-(4-ethoxy-benzyl)-phenyl]-2,2-bis-hydroxymethyl-tetrahydro-pyran-3,4,5-triol]	23 nM	> 30000 nM
